Measured values published in patent publication US20260097022A1, “COMPOUNDS AND USES THEREOF” (Integrated Biosciences, Inc., priority 2023, published 2026).
Each block holds one compound with its values, some of them ahead of it.

Assays:
Mcl-1 = Mcl-1 (Homo sapiens, UniProt Q07820); test: Mcl-1 TR-FRET; type: binding
ex vivo human skin = test: Ex vivo aged human skin model
Experimental: IBX-100 was first tested in ex vivo skin for safety.
IBX-100 was further tested in ex vivo skin for efficacy, p16 mRNA expression was measured after 5 days of topical application of IBX-100 on an older subject (e.g. Person, Fitzpatrick type 2) skin, and compared to vehicle values.

[1] = tested on: wounded ex vivo human skin; test: Ex vivo wounded skin model
Experimental: For the younger skin sample, RNA expression levels of collagen (Col1a1) and matrix metallopeptidase 9 (MMP9) were additionally measured. Higher levels of Col1a1 may be associated with senescence and scarring.
IBX-100 was tested again for safety in a combination dosing regimen. IBX-100 was formulated as a 10% solution in 100% DMSO and applied directly by pipetting 5 μL on wounded younger skin (e.g. Person, Fitzpatrick type 2-3). Additionally, IBX-100 was administered to the culture medium at a final concentration of about 100 μg/mL, by adding 1 μL of a 100 mg/mL solution in DMSO to 1 mL of culture media, as a model of systemic administration.
To test efficacy. IBX-100 was applied both topically and systemically as described above every 24 h for 5 days. On day 6, the skin biopsies were excised, and p16. Col1a1, and MMP9 RNA expression was measured inside each wound. Compared to vehicle (e.g., DMSO) values, p16. Col1a1, and MMP9 expression was decreased, on average, by ˜30%. ˜ 60%, and ˜60%, respectively, with administration of IBX-100 (FIG. 19).

[2] = Cytotoxicity to T-cells in vitro; type: cell-based, human; conditions: human, primary human T-cells; read-out: T-cell cytotoxicity IC50
[3] = tested on: etoposide-treated IMR-90 cells; test: Etoposide-induced senescence model, resazurin cell viability (screen and dose-response); type: cell-based, human; conditions: 3 days
Procedure, shortened: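 IMR-90 fibroblasts made senescent with 50 μM etoposide for 2 days, then 4 days recovery before plating. Compounds at 10 μM or 1 μM final (screen) or three-fold dilutions (1% DMSO) for 3 days, then 0.15 mM resazurin 1 day, fluorescence 550/590 nm. Viability expressed as fraction of untreated controls; biological duplicates.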

HEK293 cells = test: Cytotoxicity against HEK293 cells (resazurin); type: cell-based, human; conditions: 3 days treatment; curve-fitting, two biological replicates
Experimental: (§1) Measuring cytotoxicity against HepG2 and HEK293 cells. Cytotoxicity in human embryonic kidney (HEK293) and liver carcinoma (HepG2) cells was assayed as above using a resazurin assay. Cells were obtained from ATCC (ATCC CRL-1573 and HB-8065), passaged <10 times, and grown in Dulbecco's modification of Eagle's Medium (DMEM: Corning 10^−013-CV) supplemented with 10% FBS and 1% penicillin-streptomycin. 99 μL of cells were plated into each well of a 96-well clear flat-bottom, black polystyrene tissue-culture-treated plate at a density of ˜10+ cells/well, and plates were incubated overnight for adhesion. The day after plating. 1 μL of each compound, prepared as two-fold serial dilutions of 5 mM stock solutions in DMSO, was added to each well. Cells were incubated for 3 days, after which resazurin was added to each well to a final concentration of 0.15 mM. After an additional 1 day of incubation, the fluorescence excitation/emission at 550/590 nm was read using a SpectraMax M3 plate reader. Experiments were performed in biological duplicate. IC50 values were determined by normalizing with respect to the fluorescence intensity values of untreated control cells on day 3, as described in Calculation of cellular viability values in dose-response curves above.

HepG2 cells = test: Cytotoxicity against HepG2 cells (resazurin); type: cell-based, human; conditions: 3 days treatment; curve-fitting, two biological replicates
Experimental: as §1

human red blood cells = test: Hemolysis assay; type: cell-based; conditions: up to a final concentration of 100 μM; 1 h at 37° C.
Experimental: Hemolysis assay. Whole human blood containing EDTA (Innovative Resarch IWB1K2E) was centrifuged at 120×g at 4° C., for 5 min and resuspended in Dulbecco's PBS (DPBS: VWR 02-0119-0500). These washing steps were repeated until the supernatant was clear. Red blood cells were then resuspended in DPBS to 5×10^8 cells/mL, and 100 μL of cells was plated into each well of a 96-well clear round-bottom plate. Compounds were added to the indicated concentrations, and DMSO was used as a vehicle. Samples were incubated for 1 h at 37° C., without shaking, after which plates were centrifuged at 1500×g at room temperature for 5 min to pellet cells. 60 μL of the supernatant from each sample was then transferred to a 96-well clear flat-bottom plate, and the absorbance was read at 405 nm using a SpectraMax M3 plate reader to quantify the amount of soluble hemoglobin. Fractional hemolysis was determined by linearly interpolating absorbance values with respect to a positive control (saturation with 10% Triton X-100) and a negative control (1% DMSO vehicle). Results are depicted in FIG. 14.

[4] = tested on: Salmonella typhimurium TA100; test: Genotoxicity assay (Ames 384-ISO test); type: cell-based; conditions: 100 μM
Experimental: Genotoxicity assay. An Ames 384-ISO test (6041-1S) from Environmental Bio-Detection Products, Inc, was used following the manufacturer's instructions. Briefly. Salmonella typhimurium TA100 was grown overnight (16-18 h) at 37° C., with shaking at 300 rpm and treated with the provided exposure media and compound samples at the final concentrations indicated. Treatment with the provided 4-nitroquinoline 1-oxide (4NQO), a mutagen, was used as a positive control. Cells were then added to the provided reversion solution, and each sample was split into 48 wells of 384-well plates. Plates were incubated at 37° C., for 2 days, after which the number of revertant (yellow-colored) wells corresponding to each sample was counted. […] An overnight bacterial culture was diluted 1:10.000 in LB medium (Becton Dickinson 244620) and plated using 99 μL working volumes into the wells of a clear flat-bottom 96-well plate. One μL of two-fold dilutions of each test compound in DMSO, starting from a final concentration of 500 μM, was added across wells, and plates were sealed and incubated overnight at 37° C., to determine bacterial growth.

primary human T-cells = test: Cytotoxicity to T-cells in vitro; type: cell-based; conditions: for T-cell death: at about 0.1 μM; for IC50: primary human T-cells, read-out: T-cell cytotoxicity IC50
[5] = cited from earlier work
[6] = Phase II, lung carcinoma; cited from earlier work
[7] = topical and systemic every 24 h for 5 days, day 6
[8] = 10 μM, active: control viability >0.5, Snc/control ratio <0.7

Sequence of Mcl-1 (Q07820 whole entry, species assumed): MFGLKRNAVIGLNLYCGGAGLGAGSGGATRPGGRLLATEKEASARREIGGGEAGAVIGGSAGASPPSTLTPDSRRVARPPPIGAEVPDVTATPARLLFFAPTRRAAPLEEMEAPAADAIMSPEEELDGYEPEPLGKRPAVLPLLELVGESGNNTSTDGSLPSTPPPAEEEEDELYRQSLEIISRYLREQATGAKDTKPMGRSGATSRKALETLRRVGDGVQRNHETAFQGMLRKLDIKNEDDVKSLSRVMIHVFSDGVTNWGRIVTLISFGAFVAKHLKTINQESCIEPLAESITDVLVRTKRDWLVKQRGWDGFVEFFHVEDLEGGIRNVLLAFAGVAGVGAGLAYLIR

IC50 (Mcl-1): > 100 µM
Compound: CCOc1ccc(NC(=O)CSc2nc3ccc(NC(=O)c4ccccc4C)cc3s2)cc1 [compound 1]
safety in ex vivo skin (ex vivo human skin; 5% topical ointment in 10% DMSO: 45% PEG300:45% water, older and younger subject skin): No adverse effects
average decrease in p16 mRNA expression compared to vehicle (ex vivo human skin; 5 days of topical application, older subject skin, three samples): approximately 40%
safety in wounded ex vivo skin ([1]; 10% solution in DMSO topically and about 100 μg/mL in culture medium): no adverse effects
average decrease in Col1a1 RNA expression inside wound compared to vehicle [1, 7]: ~60%
average decrease in MMP9 RNA expression inside wound compared to vehicle [1, 7]: ~60%
average decrease in p16 RNA expression inside wound compared to vehicle [1, 7]: ~30%
IC50 [2]: > 100 µM

Compound: CN(C)CC[C@H](CSc1ccccc1)Nc1ccc(S(=O)(=O)NC(=O)c2ccc(N3CCN(Cc4ccccc4-c4ccc(Cl)cc4)CC3)cc2)cc1[N+](=O)[O-] [ABT-737, reference compound]
senolytic activity in screen ([3]; 1 μM): inactive
senolytic activity in screen [3, 8]: active
IC50 (HEK293 cells): 28.8 µM
IC50 (HepG2 cells): 132 µM
hemolysis (human red blood cells): did not induce significant hemolysis
reversion of bacterial cultures (mutagenic potential) [4]: did not induce significant reversion
T-cell death (primary human T-cells): substantial cell death
IC50 (primary human T-cells): ~1 µM
bioavailability [5]: limited bioavailability

Compound: CC1(C)CCC(c2ccc(Cl)cc2)=C(CN2CCN(c3ccc(C(=O)NS(=O)(=O)c4ccc(N[C@H](CCN5CCOCC5)CSc5ccccc5)c(S(=O)(=O)C(F)(F)F)c4)cc3)CC2)C1 [ABT-263]
senolytic activity in screen ([3]; 1 μM): inactive
senolytic activity in screen [3, 8]: active
T-cell death (primary human T-cells): substantial cell death
IC50 (primary human T-cells): ~1 µM
side effects in patients [6]: thrombocytopenia and neutropenia were common side effects
